According to article PMC5515844, “A new Prenylated Flavonoid induces G0/G1 arrest and apoptosis through p38/JNK MAPK pathways in Human Hepatocellular Carcinoma cells” (Scientific Reports, 2017):

Key:
[1] = tested on: LO2; experiment: MTT cytotoxicity assay, normal hepatic cells; type: cell-based; settings: mean ± SD
Procedure: (§1) HepG2 and Hep3B (human hepatoma cells), Bcap37 and MCF-7 (human breast cancer cells), TE-1 (human esophageal cancer cells), A549 (human lung carcinoma cells), U251 and U87 (human glioma cells), were cultured in Dulbecco’s modified Eagle’s medium (DMEM) supplemented with 10% fetal bovine serum (FBS) and 1% penicillin/streptomycin (10000 U/mL penicillin, 10000 μg/ml streptomycin). SH-SY5Y (human neuroblastoma cells), LO2 (human normal liver cell) were grown in RPMI 1640 containing 10% FBS and 100 µg/ml penicillin, 100 µg/ml streptomycin. HepG2, Hep3B, MCF-7, TE-1, A549, U87, U251 and SHSY5Y cells were obtained from the American Type Culture Collection (Manassas, VA, USA). Bcap37 and LO2 cells were purchased from the Cell Bank of Chinese Academy of Sciences (Shanghai, China). All cells were incubated in a humidified atmosphere containing 5% CO2 at 37 °C.
(§2) Cells seeded in 96-well plates with 5 × 10^3 cells/well were adhered overnight and incubated with vehicle control (DMSO) or diverse concentrations of compounds for 48 h. After treatment, 20 μL of MTT (5 mg/mL) was added to each well and incubated for another 4 h at 37 °C. Then, 150 μL of DMSO/well was appended after removed the supernatant to dissolve the formed purple formazan crystals and the color absorbance was measured at 490 nm using a microplate reader (Molecular Devices, Thermo, CA, USA). The inhibition rate (%) was calculated as (A490(control) − A490(drug groups))/(A490(control) − A490(blank)) × 100 and the value of IC50 (the concentration that caused 50% inhibition of cell viability) was determined using SPSS 20.0. This experiment was measured in triplicate, independently.

[2] = tested on: HepG2 cells; experiment: Annexin V-FITC/PI apoptosis detection; type: cell-based, human; settings: HepG2, 2.5–10.0 μM, 48 h, dose-dependent
Procedure: (§3) An annexin-V FITC apoptosis detection Kit was used to determine the apoptosis effect induced by daphnegiravone D according to the manufacturer’s instructions (BD Biosciences, CA, USA). Briefly, Hep3B and HepG2 cells were plated in 6-well plates (2 × 10^5/well) and incubated overnight. Cells were harvested and washed with PBS by centrifugation after treatment with different concentrations of daphnegiravone D for 48 h. Then, cells were resuspended in 500 μL binding buffer and staining with Annexin V-FITC (10 μL) and propidium iodide (5 μL) at room temperature in the dark for 10 min. Thereafter, cells were analyzed by flow cytometry within 1 h after staining. 10,000 cells were acquired for each sample and data were analyzed by Cell Quest Pro software (BD Biosciences, New Jersey, USA).

[3] = tested on: Hep3B cells; experiment: Annexin V-FITC/PI apoptosis detection; type: cell-based, human; settings: 0.5–2.0 μM, 48 h, dose-dependent
Procedure: as §3

[4] = tested on: HepG2 cells; experiment: Clonogenic assay; type: cell-based, human; settings: HepG2, two weeks, dose-dependent
Procedure: (§4) The clonogenic assay was performed to appraise the effect of daphnegiravone D on cell proliferation. Hep3B (800 cells/well) or HepG2 (4,000 cells/well) cells were seeded in 6-well plates in 2 mL complete media overnight and attachment cells were incubated with various concentrations of daphnegiravone D for two weeks. Then, cells were washed twice with PBS carefully and fixed with 4.0% paraformaldehyde for 30 min, and stained with 0.5% crystal violet at room temperature for 30 min. Colonies containing exceeding 50 cells/colony were counted under microscope. All experiments were independently performed three times.

[5] = tested on: Hep3B cells; experiment: Clonogenic assay; type: cell-based, human; settings: two weeks, dose-dependent
Procedure: as §4

[6] = tested on: Bcap37; experiment: MTT cytotoxicity assay; type: cell-based; settings: Homo sapiens, 48 h, mean ± SD
Procedure: as §1, §2

[7] = tested on: TE-1; experiment: MTT cytotoxicity assay; type: cell-based; settings: Homo sapiens, 48 h, mean ± SD
Procedure: as §1, §2

[8] = tested on: U87; experiment: MTT cytotoxicity assay; type: cell-based; settings: Homo sapiens, U-87 MG, 48 h, mean ± SD
Procedure: as §1, §2

[9] = tested on: SH-SY5Y; experiment: MTT cytotoxicity assay; type: cell-based; settings: Homo sapiens, 48 h, mean ± SD
Procedure: as §1, §2

[10] = tested on: U251; experiment: MTT cytotoxicity assay; type: cell-based; settings: Homo sapiens, U-251, 48 h, mean ± SD
Procedure: as §1, §2

[11] = Gross evaluation and pathological study in xenograft nude mice; type: in vivo, BALB/c nude mice
Procedure: All of the animal studies and procedures were conducted in accordance with the approval and guidelines of the Shenyang Pharmaceutical University Institutional Animal Care and Use Committee (permission number: SCXK (Jing) 2014-0004). Male BALB/c nude mice at the age of six weeks were obtained from Beijing HFK Bioscience Co., Ltd (Beijing, China). Hep3B cells (1 × 10^5 cells) were implanted subcutaneously into the right backsides of each nude mouse. After 12 days, when the tumor size reached about 100 mm^3, the mice were randomly divided into three groups (n = 6) and intraperitoneally injected with vehicle control or daphnegiravone D (5 and 10 mg/kg body weight) every two days for two weeks. The body weight and tumor sizes were measured every day, and the tumor volume was determined by caliper measurements and calculated by the formula: 0.5236 × L × W ^2, where L is the long axis and W is the short axis of the tumor. The experiment was terminated when the tumors volume of the control group reached about 3000 mm^3. The mice were sacrificed, and the tumors, hearts, livers, spleens, lungs and kidneys were excised immediately to evaluate the antitumor activity and toxicity of daphnegiravone D.
Mouse major organs (heart, liver, spleen, lung, kidney) and tumors were isolated and fixed in 10% buffered formalin for 3 days and embedded in paraffin. […]

With `COc1c(-c2ccc(O)c(CC=C(C)C)c2)oc2c(CC=C(C)C)c(O)cc(O)c2c1=O` [Compound 1, daphnegiravone D] the IC50 ([1]; 48 h, normal human hepatic cells) was 45.1 ± 3.09 µM, the IC50 ([1]; Homo sapiens, L02, 48 h) was ~45 µM and the “AV+PI− and AV+PI+ cells (apoptosis)” value [2] was “increased dramatically”. The “AV+PI− and AV+PI+ cells (apoptosis)” value [3] was “increased dramatically”, the colonies [4] was “dramatically reduced” and the colonies [5] was “dramatically reduced”. For the same compound, the IC50 [6] was 28 ± 1.94 µM, the IC50 [7] was 19.3 ± 2.3 µM and the IC50 [8] was 35.1 ± 3.97 µM. The IC50 [9] was 39.1 ± 3.67 µM, the IC50 [10] was 33.4 ± 3.03 µM and the “histopathology of heart, liver, spleen, lungs and kidneys” value ([11]; 5 mg/kg and 10 mg/kg, H&E, vs vehicle control group) was “no obvious differences”. For the same compound, the “body weight of the mice” value ([11]; 5 and 10 mg/kg i.p. every two days for two weeks) was “did not affect the body weight”.
